Laboratory results taken from US11273176B2, “Use of PLA2G5-deficient suppressive macrophages in suppression of inflammation” (THE BRIGHAM AND WOMEN'S HOSPITAL, INC., priority 2016, dated 2022).

B1: IL-33: mouse rIL-33 (R&D Systems) given intranasally or added to ILC2 cultures (protein, UniProt Q8BVZ5 1-266, looked up)
Interleukin-33: MRPRMKYSNSKISPAKFSSTAGEALVPPCKIRRSQQKTKEFCHVYCMRLRSGLTIRKETSYFRKEPTKRYSLKSGTKHEENFSAYPRDSRKRSLLGSIQAFAASVDTLSIQGTSLLTQSPASLSTYNDQSVSFVLENGCYVINVDDSGKDQEQDQVLLRYYESPCPASQSGDGVDGKKLMVNMSPIKDTDIWLHANDKDYSVELQRGDVSPPEQAFFVLHKKSSDFVSFECKNLPGTYIGVKDNQLALVEEKDESCNNIMFKLSKI

Assays:
C57/BL6 Wt mice = assay: IL-33-induced pulmonary inflammation (intranasal r-IL-33 with or without LA/OA) in Wt mice; assay type: in vivo, mouse; conditions: for pulmonary inflammation: agent given alone
Procedure: (§1) C57/BL6 Wt and Pla2g5-null mice^46, 47 (9-12 wk-old males) received 25 μg of Alternaria haracter extract (Greer Laboratories, Lenoir, N.C.) in 20 uL of PBS or PBS alone intranasally on days 0, 3, 6 and 9 and euthanized 18 hours later^1 or a single dose of 100 μg and were euthanized after 1 h or 3 h^2. For IL-33-induced pulmonary inflammation, Wt and Pla2g5-null naïve mice were given mouse rIL-33 (R&D Systems, Minneapolis, Minn.) intranasally (i.n.) 100 ng/dose on days 0, 3, 6 and 9 with or without LA (132 nM)^28 or OA (106 nM), and mice were euthanized 18 hours after the last dose.
(§2) Lung were manually chopped to approximately 10 mm pieces, then digested in RPMI containing 428 U/ml Collagenase IV (Worthington, Lakewood, N.J.) and 20 mg/ml DNAse I (Roche, Mannheim, Germany) (30 min, 37° C.). After red cell lysis, the obtained cell suspension from single mouse was washed, and counted. After washing, cells were blocked (1 h, 4° C.) with 1% of rat anti mouse CD16/CD32 (BD Biosciences, San Jose, Calif.) and 10% donkey serum and then stained (1 h, 4° C.) with appropriate Abs. Mouse cells were stained with CD45 PercPCy5 (clone 30-F11, BioLegend, San Diego, Calif.), CD19 FITC (6D5, Biolegend), CD3 FITC (145-2C11, BioLegend), CD11b FITC (M1/70, BioLegend), CD11c PE-Cy7 FITC (N418, BioLegend), Ly6G/C FITC (RB6-8C5, eBiosciences), Nk1.1 FITC (PK136, Biolegend), FceR1 FITC (MAR-1, Biolegend), Siglec-F APC (E50-2440, BD Bioscience), Thy 1.2 APC (53-2.1, eBioscience, San Diego, Ca), ICOS (C398.4A, eBiosciences), Sca-1 (D7, eBioscieces), CD25 (PC61, eBiosciences), ST2 biotin (clone DJ8, MD Bioscience) followed by PE streptavidin (eBiosciences). In selected experiments cells were fixed with 4% paraformaldehyde (7 min, 21° C.), washed, permeabilized with 0.1% saponin (SigmaAldrich, St Louis, Ca) (7 min, 21° C.) and stained with CD68 APC (FA-11, AbD Serotec, Raleigh, Nc), IL-5 PE (TRFKS, Biolegend), IL-13 (eBio13A eBiosciences), IL-33 PE (396118, R&D Systems, Minneapolis, Minn.), rabbit polyclonal anti murine RELM-a (Peprotech, Rocky Hill N.J.)) and corresponding isotypes as controls. Acquisition was performed on a FACSCanto flow cytometer with FACSDiva software (BD Biosciences), and data were analyzed with FlowJo (Tree Star, Ashland, Oreg.).

Pla2g5-null mice = assay: IL-33-induced pulmonary inflammation (intranasal r-IL-33 with or without LA/OA) in Pla2g5-null mice; assay type: in vivo, mouse; conditions: for IL-33-induced eosinophilia (numbers of eosinophils), effect of FFA given with IL-33 / pulmonary inflammation: intranasal, 4 doses in 10 days; for pulmonary inflammation: agent given alone
Procedure: as §1, §2

Wt ILC2 = assay: In-vitro stimulation of sorted Wt ILC2, intracellular IL-5 by flow cytometry; assay type: cell-based, mouse; conditions: LA 200 μM, 8 h; for percentage of IL-5-expressing ILC2s: OA 200 μM or IL-33 30 ng/ml alone
Procedure: as §2
(§3) Wt and Pla2g5-null mice received four doses of 25 ug of Alternaria in 20 ul of PBS intranasally on day 0, 3, 6 and 9 and euthanized 18h later in order to expand ILC2 prior to FACs sorting. Sorting of ILC2 (CD45+ Lin− (CD3, CD19, Ly6g, CD11c, CD11b, Nk1.1, FcεR1^−), Thy1.2+) was performed using a FACSDiva 8.0.1 cell sorter (BD bio-science). Purified ILC2 (>98%) were rested for 40 hours with 10 ng/mL rIL-2 and rIL-7 (R&D Systems, Minneapolis, Minn.) in a 96 well around bottom plates (20000 cells per well). Prior to stimulation, the medium was changed to fresh medium. ILC2 were cultured with 30 ng/mL rIL-33 (R&D Systems), 200 μM Linoleic Acid (Cayman Chemical) or 200 μM Oleic Acid (Cayman Chemical)^22 or all together for 8h. For intracellular cytokine staining, 1 μl/mL of Golgi Plug (BD Bioscience) was added to ILC2 6h before collection for FACs analysis.

Pla2g5-null ILC2 = assay: In-vitro stimulation of sorted Pla2g5-null ILC2, intracellular IL-5 by flow cytometry; assay type: cell-based, mouse; conditions: LA 200 μM, 8 h; for percentage of IL-5-expressing ILC2s: OA 200 μM or IL-33 30 ng/ml alone; for IL-33-induced increase in IL-5 positive ILC2s, effect of FFA: OA 200 μM with IL-33 30 ng/ml
Procedure: as §2, §3

| Molecule | IL-33-induced eosinophilia (numbers of eosinophils), effect of FFA given with IL-33 (C57/BL6 Wt mice; intranasal, 4 doses in 10 days) | pulmonary inflammation (C57/BL6 Wt mice; intranasal, 4 doses in 10 days) | IL-33-induced eosinophilia (numbers of eosinophils), effect of FFA given with IL-33 (Pla2g5-null mice) | pulmonary inflammation (Pla2g5-null mice) | percentage of IL-5-expressing ILC2s (Wt ILC2) | IL-33-induced expression of IL-5 by ILC2s, effect of FFA (Wt ILC2; OA 200 μM with IL-33 30 ng/ml) | percentage of IL-5-expressing ILC2s (Pla2g5-null ILC2) | IL-33-induced increase in IL-5 positive ILC2s, effect of FFA (Pla2g5-null ILC2) | numbers of eosinophils, ILC2s and Sca-1+ILC2 (C57/BL6 Wt mice; IL-33 i.n. over 10 days (100 ng/dose days 0, 3, 6, 9), homogenate lungs, flow cytometry) | macrophage activation (RELMα in macrophages) (C57/BL6 Wt mice; exogenous IL-33 for 10 days) | numbers of eosinophils, ILC2 and Sca-1+ILC2 (Pla2g5-null mice; IL-33 i.n. over 10 days, compared with Wt controls) | macrophage activation (RELMα in macrophages) (Pla2g5-null mice; exogenous IL-33 for 10 days) |
| --- | --- | --- | --- | --- | --- | --- | --- | --- | --- | --- | --- | --- |
| CCCCC/C=C\C/C=C\CCCCCCCC(=O)O [LA, linoleic acid] | sharp potentiation | Neither LA nor OA alone caused pulmonary inflammation | failed to potentiate | Neither LA nor OA alone caused pulmonary inflammation | Neither LA nor OA induced significant IL-5 expression | significantly potentiated | Neither LA nor OA induced significant IL-5 expression | suppressed |  |  |  |  |
| CCCCCCCC/C=C\CCCCCCCC(=O)O [OA, oleic acid] |  | Neither LA nor OA alone caused pulmonary inflammation | substantially enhance | Neither LA nor OA alone caused pulmonary inflammation | Neither LA nor OA induced significant IL-5 expression |  | Neither LA nor OA induced significant IL-5 expression | inactive |  |  |  |  |
| B1 |  | induces |  | insufficient | significantly increased |  | significantly increased |  | robustly increased | induced substantial macrophage activation | markedly diminished | markedly impaired |
